Assay results: patent EP4603105A1, “PHARMACEUTICAL COMPOSITION CONTAINING CYCLIC COMPOUND HAVING SELECTIVE KRAS INHIBITORY EFFECT AGAINST HRAS AND NRAS” (CHUGAI SEIYAKU KABUSHIKI KAISHA, priority 2022, dated 2024)
Where a SMILES comes first, the peptide text is derived from it. Bridges are numbered along the chain shown (N, C = ends). [ ]: non-standard residue; d: D form. The star is where a group is joined. hPhe(3-Cl-4-CF3) = N[C@@H](CCc1ccc(C(F)(F)F)c(Cl)c1)C(=O)O; NPrPhe(4-CF3) = CCCN[C@@H](Cc1ccc(C(F)(F)F)cc1)C(=O)O; Pro(4-spirocPr) = O=C(O)[C@@H]1CC2(CC2)CN1; Abu(4,4,4-F3) = N[C@@H](CC(F)(F)F)C(=O)O; Morpholine(3S-CO) = O=C(O)[C@@H]1COCCN1; Pip(4,4-F2) = O=C(O)[C@@H]1CC(F)(F)CCN1; NMeGly(cPent) = CN[C@H](C(=O)O)C1CCCC1; Hyp = O=C(O)[C@@H]1C[C@@H](O)CN1; NMeD = CN[C@@H](CC(=O)O)C(=O)O; NMeL = CN[C@@H](CC(C)C)C(=O)O; hPip = O=C(O)[C@@H]1CCCCCN1; Pip = O=C(O)[C@@H]1CCCCN1; Morpholide = C1CN(*)CCO1; NMeA = CN[C@@H](C)C(=O)O; Ac5c = NC1(C(=O)O)CCCC1; Aze = O=C(O)[C@@H]1CCN1; NPrGly = CCCNCC(=O)O; NEtG = CCNCC(=O)O; Sar = CNCC(=O)O

How the values were obtained:
HRAS wild-type protein = HRAS wild-type protein (Homo sapiens, UniProt P01112); assay: Binding to HRAS by surface plasmon resonance (SPR), KD and KD ratio to KRAS; settings: ratio of KD for HRAS wild-type protein to KD for KRAS
How it was run: (§1)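 SPR, 30°C: Avi-biotin RAS·GDP captured via Biotin CAPture (~100–300 RU); running buffer HBS pH 7.4, 1 mM DTT, 10 mM MgCl2, 0.01% Tween 20, 10 µM GDP, 4% DMSO. Single-cycle kinetics, 100 µL/min, 75 s injections; 1:1 model → KD.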

[1] = target: GDP-bound NRAS wild-type protein (Homo sapiens, UniProt P01111); assay: Binding to NRAS by surface plasmon resonance (SPR), KD and KD ratio to KRAS; settings: ratio of KD for GDP-bound NRAS wild-type protein to KD for KRAS
How it was run: as §1

[2] = test system: human lung cancer strain NCI-H441; type: cell-based
How it was run: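 Proliferation was scored by […] measured after the reagent was added to cultures kept at 37°C in 5% carbon dioxide.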

GDP-bound NRAS wild-type protein, sequence (P01111 whole entry): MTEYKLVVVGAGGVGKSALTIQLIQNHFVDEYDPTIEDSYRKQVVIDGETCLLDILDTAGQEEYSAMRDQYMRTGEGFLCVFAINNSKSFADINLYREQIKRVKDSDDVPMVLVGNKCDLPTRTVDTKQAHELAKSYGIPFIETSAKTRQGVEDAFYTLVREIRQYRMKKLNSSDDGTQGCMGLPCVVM
HRAS wild-type protein, sequence (P01112 whole entry): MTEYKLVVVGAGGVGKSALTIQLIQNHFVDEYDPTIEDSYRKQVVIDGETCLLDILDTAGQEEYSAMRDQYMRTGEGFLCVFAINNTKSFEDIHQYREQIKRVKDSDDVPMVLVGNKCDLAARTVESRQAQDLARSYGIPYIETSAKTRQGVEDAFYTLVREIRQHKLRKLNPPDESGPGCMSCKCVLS

| SMILES | HRAS /KRAS (HRAS wild-type protein) | NRAS /KRAS [1] | IC50 [2] [nM] |
| --- | --- | --- | --- |
| CCCN1C(=O)[C@@H]2CCN2C(=O)[C@H](C)N(C)C(=O)[C@H]([C@@H](C)CC)NC(=O)[C@H](CC(C)C)N(C)C(=O)C[C@@H](C(=O)N2CCOCC2)N(C)C(=O)[C@H](C2CCCC2)N(C)C(=O)C2(CCCC2)NC(=O)[C@@H]2CC3(CC3)CN2C(=O)[C@H](CCc2ccc(C(F)(F)F)c(Cl)c2)NC(=O)CN(C)C(=O)[C@@H]1Cc1ccc(C(F)(F)F)cc1 [PP0282] ([NMeL]I[NMeA][Aze][NPrPhe(4-CF3)][Sar][hPhe(3-Cl-4-CF3)][Pro(4-spirocPr)][Ac5c][NMeGly(cPent)][NMeD]-Morpholide; lactam N-11) | C (A compound having a KD ratio of 0.1 or more and less than 3 is denoted as C) | C (A compound having a KD ratio of 0.1 or more and less than 3 is denoted as C) | 3.9 |
| CCCN1C(=O)[C@@H]2CCN2C(=O)[C@H](C)N(C)C(=O)[C@H]([C@@H](C)CC)NC(=O)[C@H](CC(C)C)N(C)C(=O)C[C@@H](C(=O)N2CCOCC2)N(C)C(=O)[C@H](C2CCCC2)N(C)C(=O)C2(CCCC2)NC(=O)[C@@H]2C[C@@H](OC)CN2C(=O)[C@H](CCc2ccc(C(F)(F)F)c(Cl)c2)NC(=O)CN(C)C(=O)[C@@H]1Cc1ccc(C(F)(F)F)cc1 [PP0283] ([NMeL]I[NMeA][Aze][NPrPhe(4-CF3)][Sar][hPhe(3-Cl-4-CF3)][Hyp](Me)[Ac5c][NMeGly(cPent)][NMeD]-Morpholide; lactam N-11) | C (A compound having a KD ratio of 0.1 or more and less than 3 is denoted as C) | C (A compound having a KD ratio of 0.1 or more and less than 3 is denoted as C) | 1.9 |
| CCCN1C(=O)[C@@H]2CCN2C(=O)[C@H](C)N(C)C(=O)[C@H]([C@@H](C)CC)NC(=O)[C@H](CC(C)C)N(C)C(=O)C[C@@H](C(=O)N2CCOCC2)N(C)C(=O)[C@H](C2CCCC2)N(C)C(=O)C2(CCCC2)NC(=O)[C@@H]2CCCCN2C(=O)[C@H](CCc2ccc(C(F)(F)F)c(Cl)c2)NC(=O)CN(C)C(=O)[C@@H]1Cc1ccc(C(F)(F)F)cc1 [PP0284] ([NMeL]I[NMeA][Aze][NPrPhe(4-CF3)][Sar][hPhe(3-Cl-4-CF3)][Pip][Ac5c][NMeGly(cPent)][NMeD]-Morpholide; lactam N-11) | B (a compound having 3 or more and less than 10 is denoted as B) | C (A compound having a KD ratio of 0.1 or more and less than 3 is denoted as C) | 29 |
| CCCN1C(=O)[C@@H]2CCN2C(=O)[C@H](C)N(C)C(=O)[C@H]([C@@H](C)CC)NC(=O)[C@H](CC(C)C)N(C)C(=O)C[C@@H](C(=O)N2CCOCC2)N(C)C(=O)[C@H](C2CCCC2)N(C)C(=O)C2(CCCC2)NC(=O)[C@@H]2CC(F)(F)CCN2C(=O)[C@H](CCc2ccc(C(F)(F)F)c(Cl)c2)NC(=O)CN(C)C(=O)[C@@H]1Cc1ccc(C(F)(F)F)cc1 [PP0285] ([NMeL]I[NMeA][Aze][NPrPhe(4-CF3)][Sar][hPhe(3-Cl-4-CF3)][Pip(4,4-F2)][Ac5c][NMeGly(cPent)][NMeD]-Morpholide; lactam N-11) | B (a compound having 3 or more and less than 10 is denoted as B) | C (A compound having a KD ratio of 0.1 or more and less than 3 is denoted as C) | 18.9 |
| CCCN1C(=O)[C@@H]2CCN2C(=O)[C@H](C)N(C)C(=O)[C@H]([C@@H](C)CC)NC(=O)[C@H](CC(C)C)N(C)C(=O)C[C@@H](C(=O)N2CCOCC2)N(C)C(=O)[C@H](C2CCCC2)N(C)C(=O)C2(CCCC2)NC(=O)[C@@H]2COCCN2C(=O)[C@H](CCc2ccc(C(F)(F)F)c(Cl)c2)NC(=O)CN(C)C(=O)[C@@H]1Cc1ccc(C(F)(F)F)cc1 [PP0286] ([NMeL]I[NMeA][Aze][NPrPhe(4-CF3)][Sar][hPhe(3-Cl-4-CF3)][Morpholine(3S-CO)][Ac5c][NMeGly(cPent)][NMeD]-Morpholide; lactam N-11) | B (a compound having 3 or more and less than 10 is denoted as B) | C (A compound having a KD ratio of 0.1 or more and less than 3 is denoted as C) | 35 |
| CCCN1C(=O)[C@@H]2CCN2C(=O)[C@H](C)N(C)C(=O)[C@H]([C@@H](C)CC)NC(=O)[C@H](CC(C)C)N(C)C(=O)C[C@@H](C(=O)N2CCOCC2)N(C)C(=O)[C@H](C2CCCC2)N(C)C(=O)C2(CCCC2)NC(=O)CN(C)C(=O)[C@H](CCc2ccc(C(F)(F)F)c(Cl)c2)NC(=O)CN(C)C(=O)[C@@H]1Cc1ccc(C(F)(F)F)cc1 [PP0287] ([NMeL]I[NMeA][Aze][NPrPhe(4-CF3)][Sar][hPhe(3-Cl-4-CF3)][Sar][Ac5c][NMeGly(cPent)][NMeD]-Morpholide; lactam N-11) | C (A compound having a KD ratio of 0.1 or more and less than 3 is denoted as C) | C (A compound having a KD ratio of 0.1 or more and less than 3 is denoted as C) | 14.5 |
| CCCN1CC(=O)NC2(CCCC2)C(=O)N(C)[C@@H](C2CCCC2)C(=O)N(C)[C@H](C(=O)N2CCOCC2)CC(=O)N(C)[C@@H](CC(C)C)C(=O)N[C@@H]([C@@H](C)CC)C(=O)N(C)[C@@H](C)C(=O)N2CC[C@H]2C(=O)N(CCC)[C@@H](Cc2ccc(C(F)(F)F)cc2)C(=O)N(C)CC(=O)N[C@@H](CCc2ccc(C(F)(F)F)c(Cl)c2)C1=O [PP0288] ([NMeL]I[NMeA][Aze][NPrPhe(4-CF3)][Sar][hPhe(3-Cl-4-CF3)][NPrGly][Ac5c][NMeGly(cPent)][NMeD]-Morpholide; lactam N-11) | B (a compound having 3 or more and less than 10 is denoted as B) | C (A compound having a KD ratio of 0.1 or more and less than 3 is denoted as C) | 14.3 |
| CCCN1C(=O)CN(C)C(=O)CN(CC)C(=O)[C@H]([C@@H](C)CC)NC(=O)[C@@H]2CCCCCN2C(=O)C[C@@H](C(=O)N2CCOCC2)N(C)C(=O)[C@H](C2CCCC2)N(C)C(=O)C2(CCCC2)NC(=O)[C@@H]2CCCN2C(=O)[C@H](CCc2ccc(C(F)(F)F)c(Cl)c2)NC(=O)CN(C)C(=O)[C@@H]1Cc1ccc(C(F)(F)F)cc1 [PP0289] ([hPip]I[NEtG][Sar][NPrPhe(4-CF3)][Sar][hPhe(3-Cl-4-CF3)]P[Ac5c][NMeGly(cPent)][NMeD]-Morpholide; lactam N-11) | B (a compound having 3 or more and less than 10 is denoted as B) | B (a compound having 3 or more and less than 10 is denoted as B) | 76.4 |
| CCCN1C(=O)CN(C)C(=O)CN(CC)C(=O)[C@H](CC(F)(F)F)NC(=O)[C@H](CC(C)C)N(C)C(=O)C[C@@H](C(=O)N2CCOCC2)N(C)C(=O)[C@H](C2CCCC2)N(C)C(=O)C2(CCCC2)NC(=O)[C@@H]2CCCN2C(=O)[C@H](CCc2ccc(C(F)(F)F)c(Cl)c2)NC(=O)CN(C)C(=O)[C@@H]1Cc1ccc(C(F)(F)F)cc1 [PP0291] ([NMeL][Abu(4,4,4-F3)][NEtG][Sar][NPrPhe(4-CF3)][Sar][hPhe(3-Cl-4-CF3)]P[Ac5c][NMeGly(cPent)][NMeD]-Morpholide; lactam N-11) | B (a compound having 3 or more and less than 10 is denoted as B) | B (a compound having 3 or more and less than 10 is denoted as B) | 31 |
